Assay results published in patent publication US8574547B2, “Photoacoustic probes and methods of imaging” (The Board of Trustees of the Leland Stanford Junior …, priority 2007, dated 2013).

Target: T1, αvβ3 integrin (Homo sapiens, UniProt P05106+P06756)
T1 construct: endogenous in cells
Experiment: Targeting ability: imaging inhibition of Alexa488 conjugated αvβ3 integrin antibody binding to cells
Format: cell-based
Settings: cells incubated 1 hour with substance, then ½ hour with Alexa488 conjugated αvβ3 integrin antibody
Procedure: FIGS. 7(1)-7(4) illustrate digital images of cells that were incubated for 1 hour with PBS (FIG. 7(1)), QSY-21 (FIG. 7(2)), […] (FIG. 7(3)), and […] (FIG. 7(4)). Then the cells were incubated for ½ hour with Alexa488 conjugated αvβ3 integrin antibody.
Targeting ability of the conjugate was tested by imaging inhibition of the avb3 intergrin antibody. Cells were incubated for 1 hour with PBS (FIG. 7(1)), QSY-21 (FIG. 7(2)), RGD-QSY21 (FIG. 7(3)), and RGD (FIG. 7(4)). Then the cells were incubated for ½ hour with Alexa488 conjugated αvβ3 integrin antibody.

T1 sequence (P06756 31-889 limits assumed): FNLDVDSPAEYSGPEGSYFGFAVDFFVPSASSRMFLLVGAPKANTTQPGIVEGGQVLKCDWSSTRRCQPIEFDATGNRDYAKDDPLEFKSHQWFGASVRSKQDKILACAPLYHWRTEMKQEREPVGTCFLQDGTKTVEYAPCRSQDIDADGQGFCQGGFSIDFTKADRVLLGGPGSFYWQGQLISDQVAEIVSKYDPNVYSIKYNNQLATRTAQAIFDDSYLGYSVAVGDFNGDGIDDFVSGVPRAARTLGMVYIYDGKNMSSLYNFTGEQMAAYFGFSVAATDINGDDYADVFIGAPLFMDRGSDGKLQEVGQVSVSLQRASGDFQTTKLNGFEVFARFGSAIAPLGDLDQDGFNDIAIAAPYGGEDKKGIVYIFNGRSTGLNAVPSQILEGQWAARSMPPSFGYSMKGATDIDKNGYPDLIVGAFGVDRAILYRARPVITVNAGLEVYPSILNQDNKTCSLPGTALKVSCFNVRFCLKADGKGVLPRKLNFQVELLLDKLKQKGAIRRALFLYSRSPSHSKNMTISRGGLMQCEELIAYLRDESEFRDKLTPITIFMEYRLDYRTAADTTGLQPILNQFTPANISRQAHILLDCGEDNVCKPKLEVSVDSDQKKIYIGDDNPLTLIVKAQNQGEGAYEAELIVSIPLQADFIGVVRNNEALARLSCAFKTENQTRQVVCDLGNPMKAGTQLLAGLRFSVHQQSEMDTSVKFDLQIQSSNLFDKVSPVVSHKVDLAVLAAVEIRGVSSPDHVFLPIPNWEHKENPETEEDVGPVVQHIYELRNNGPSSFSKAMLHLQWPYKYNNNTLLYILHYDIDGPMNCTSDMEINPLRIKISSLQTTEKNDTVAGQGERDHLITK
T1 sequence (P06756 891-1048 partner limits assumed): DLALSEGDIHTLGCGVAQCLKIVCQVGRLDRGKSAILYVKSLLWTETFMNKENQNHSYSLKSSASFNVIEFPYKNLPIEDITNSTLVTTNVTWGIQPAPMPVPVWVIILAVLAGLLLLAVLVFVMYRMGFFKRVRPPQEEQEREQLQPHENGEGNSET
T1 sequence (P05106 27-788): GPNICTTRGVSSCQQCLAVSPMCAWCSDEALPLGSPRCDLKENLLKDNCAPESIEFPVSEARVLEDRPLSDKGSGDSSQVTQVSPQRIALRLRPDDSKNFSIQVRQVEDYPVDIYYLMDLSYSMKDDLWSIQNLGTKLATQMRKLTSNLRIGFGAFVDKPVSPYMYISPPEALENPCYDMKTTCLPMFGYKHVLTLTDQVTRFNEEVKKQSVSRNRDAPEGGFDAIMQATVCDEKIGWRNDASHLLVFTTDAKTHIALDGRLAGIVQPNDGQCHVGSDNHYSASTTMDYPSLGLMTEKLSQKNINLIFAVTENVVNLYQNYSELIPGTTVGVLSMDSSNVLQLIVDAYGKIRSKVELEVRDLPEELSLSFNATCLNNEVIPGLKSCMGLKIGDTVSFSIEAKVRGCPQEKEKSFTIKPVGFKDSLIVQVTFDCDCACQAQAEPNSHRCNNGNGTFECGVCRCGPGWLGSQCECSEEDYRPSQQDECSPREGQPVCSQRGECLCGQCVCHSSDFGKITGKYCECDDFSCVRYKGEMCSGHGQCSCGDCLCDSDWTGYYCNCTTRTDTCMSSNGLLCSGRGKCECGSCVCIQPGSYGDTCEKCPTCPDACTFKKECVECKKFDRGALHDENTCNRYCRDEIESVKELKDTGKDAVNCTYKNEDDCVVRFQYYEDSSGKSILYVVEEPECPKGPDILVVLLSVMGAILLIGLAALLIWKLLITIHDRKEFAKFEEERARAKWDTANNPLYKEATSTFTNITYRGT

Substance: Arg-Gly-Asp [RGD]
- inhibition of αvβ3 integrin antibody binding: inhibition of antibody binding
